Results taken from ChEMBL document CHEMBL3774308, “KATching-Up on Small Molecule Modulators of Lysine Acetyltransferases” (J Med Chem, 2016).
Each block holds one compound with its values, some of them ahead of it.

Assays:
[1] = biological target: T1, Histone acetyltransferase p300 (Homo sapiens, UniProt Q09472); test: Inhibition of full length recombinant His6-tagged p300 (unknown origin) expressed in baculovirus infected sf21 cells using histone substrate after 10 mins by liquid scintillation counting method in presence of [3H]acetyl-CoA
T1 sequence (Q09472 whole entry): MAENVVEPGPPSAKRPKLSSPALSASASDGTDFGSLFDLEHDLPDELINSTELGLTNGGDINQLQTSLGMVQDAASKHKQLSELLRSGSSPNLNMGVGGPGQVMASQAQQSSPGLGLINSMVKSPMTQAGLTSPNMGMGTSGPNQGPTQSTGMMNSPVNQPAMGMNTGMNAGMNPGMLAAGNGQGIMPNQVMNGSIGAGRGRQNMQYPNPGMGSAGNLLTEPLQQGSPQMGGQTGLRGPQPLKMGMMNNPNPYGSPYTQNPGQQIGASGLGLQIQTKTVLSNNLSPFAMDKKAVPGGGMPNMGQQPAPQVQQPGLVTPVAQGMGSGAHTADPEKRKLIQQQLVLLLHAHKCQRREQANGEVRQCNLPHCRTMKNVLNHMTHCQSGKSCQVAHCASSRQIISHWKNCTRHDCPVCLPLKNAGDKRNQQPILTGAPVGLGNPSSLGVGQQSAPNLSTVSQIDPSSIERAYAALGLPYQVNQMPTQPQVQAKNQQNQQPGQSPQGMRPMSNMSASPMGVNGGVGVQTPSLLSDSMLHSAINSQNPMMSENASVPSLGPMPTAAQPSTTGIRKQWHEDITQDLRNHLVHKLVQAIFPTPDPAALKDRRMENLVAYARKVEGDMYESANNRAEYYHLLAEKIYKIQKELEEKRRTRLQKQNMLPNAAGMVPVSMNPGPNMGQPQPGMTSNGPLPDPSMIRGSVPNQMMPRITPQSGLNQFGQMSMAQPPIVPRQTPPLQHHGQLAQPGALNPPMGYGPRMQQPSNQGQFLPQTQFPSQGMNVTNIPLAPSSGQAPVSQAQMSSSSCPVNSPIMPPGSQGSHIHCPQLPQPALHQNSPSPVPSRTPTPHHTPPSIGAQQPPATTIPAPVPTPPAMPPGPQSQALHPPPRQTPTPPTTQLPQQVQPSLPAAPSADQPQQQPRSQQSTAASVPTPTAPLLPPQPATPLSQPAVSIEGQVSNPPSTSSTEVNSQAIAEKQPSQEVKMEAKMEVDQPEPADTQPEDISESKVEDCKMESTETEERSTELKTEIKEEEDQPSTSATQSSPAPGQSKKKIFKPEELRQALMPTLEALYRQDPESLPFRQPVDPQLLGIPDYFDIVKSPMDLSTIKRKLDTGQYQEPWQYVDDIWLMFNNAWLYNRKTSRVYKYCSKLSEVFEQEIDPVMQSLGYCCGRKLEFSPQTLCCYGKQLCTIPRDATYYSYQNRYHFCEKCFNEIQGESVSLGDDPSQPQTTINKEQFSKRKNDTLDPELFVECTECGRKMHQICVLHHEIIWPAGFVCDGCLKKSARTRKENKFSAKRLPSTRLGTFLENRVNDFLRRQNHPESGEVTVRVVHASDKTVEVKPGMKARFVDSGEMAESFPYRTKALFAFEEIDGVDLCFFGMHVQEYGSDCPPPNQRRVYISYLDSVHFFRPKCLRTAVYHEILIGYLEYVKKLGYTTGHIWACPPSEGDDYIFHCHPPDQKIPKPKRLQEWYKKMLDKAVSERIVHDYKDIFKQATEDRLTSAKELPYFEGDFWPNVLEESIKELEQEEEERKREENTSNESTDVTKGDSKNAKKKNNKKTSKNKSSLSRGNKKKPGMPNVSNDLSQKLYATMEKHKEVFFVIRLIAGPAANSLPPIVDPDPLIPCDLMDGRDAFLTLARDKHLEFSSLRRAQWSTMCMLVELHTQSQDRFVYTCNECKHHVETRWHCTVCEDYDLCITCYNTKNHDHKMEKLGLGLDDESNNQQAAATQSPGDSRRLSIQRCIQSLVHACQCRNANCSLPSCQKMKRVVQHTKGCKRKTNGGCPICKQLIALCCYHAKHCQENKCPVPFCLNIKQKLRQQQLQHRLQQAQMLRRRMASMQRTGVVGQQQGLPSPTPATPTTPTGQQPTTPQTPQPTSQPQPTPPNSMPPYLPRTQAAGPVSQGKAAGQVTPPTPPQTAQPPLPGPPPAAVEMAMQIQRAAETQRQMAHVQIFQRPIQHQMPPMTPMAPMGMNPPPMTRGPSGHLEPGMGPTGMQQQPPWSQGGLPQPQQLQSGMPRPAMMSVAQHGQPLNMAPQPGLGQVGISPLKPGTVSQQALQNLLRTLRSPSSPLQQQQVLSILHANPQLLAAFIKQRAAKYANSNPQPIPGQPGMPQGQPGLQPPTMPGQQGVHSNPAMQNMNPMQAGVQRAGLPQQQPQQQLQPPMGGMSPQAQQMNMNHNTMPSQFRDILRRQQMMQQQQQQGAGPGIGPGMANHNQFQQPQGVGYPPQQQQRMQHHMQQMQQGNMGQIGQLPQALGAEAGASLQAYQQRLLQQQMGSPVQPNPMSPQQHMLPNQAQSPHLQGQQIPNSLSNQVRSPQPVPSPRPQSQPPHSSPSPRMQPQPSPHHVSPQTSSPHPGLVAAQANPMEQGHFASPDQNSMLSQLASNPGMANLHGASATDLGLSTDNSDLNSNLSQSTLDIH

[2] = biological target: T2, Histone acetyltransferase KAT2B (Homo sapiens, UniProt Q92831); test: Inhibition of full length recombinant human FLAG-tagged PCAF expressed in baculovirus expression system using histone substrate incubated for 10 mins by radiometric gel assay
Target sequence in this assay (Q92831 whole entry): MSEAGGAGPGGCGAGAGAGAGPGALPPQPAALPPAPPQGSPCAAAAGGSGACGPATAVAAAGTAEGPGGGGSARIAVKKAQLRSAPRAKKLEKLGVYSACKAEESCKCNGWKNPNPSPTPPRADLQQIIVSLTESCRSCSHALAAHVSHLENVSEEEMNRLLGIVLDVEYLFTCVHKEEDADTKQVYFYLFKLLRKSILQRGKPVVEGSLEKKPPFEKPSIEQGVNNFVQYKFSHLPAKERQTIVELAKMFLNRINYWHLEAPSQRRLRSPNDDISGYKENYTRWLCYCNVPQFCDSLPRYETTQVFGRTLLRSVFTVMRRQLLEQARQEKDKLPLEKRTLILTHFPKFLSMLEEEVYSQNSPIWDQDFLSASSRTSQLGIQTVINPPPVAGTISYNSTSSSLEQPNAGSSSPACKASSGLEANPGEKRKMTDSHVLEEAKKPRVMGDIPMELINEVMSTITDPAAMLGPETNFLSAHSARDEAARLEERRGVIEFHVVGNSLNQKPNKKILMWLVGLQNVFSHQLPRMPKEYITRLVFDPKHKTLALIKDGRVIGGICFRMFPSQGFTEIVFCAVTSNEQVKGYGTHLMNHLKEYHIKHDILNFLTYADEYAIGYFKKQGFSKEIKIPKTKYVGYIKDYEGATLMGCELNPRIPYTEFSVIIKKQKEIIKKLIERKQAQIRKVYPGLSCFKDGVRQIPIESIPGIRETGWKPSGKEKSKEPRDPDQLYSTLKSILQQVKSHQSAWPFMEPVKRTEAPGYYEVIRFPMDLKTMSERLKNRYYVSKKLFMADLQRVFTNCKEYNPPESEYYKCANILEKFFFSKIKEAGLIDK

[3] = biological target: T1, Histone acetyltransferase p300; test: Inhibition of recombinant full length p300 (unknown origin) using N-terminal H4-20 peptide substrate incubated for 7 mins by radiometric gel assay in presence of [14C]acetyl-CoA
[4] = biological target: T1, Histone acetyltransferase p300; test: Inhibition of human recombinant C-terminal GST-tagged p300 (1195 to 1673 residues) expressed in competent Escherichia coli DH5alpha cells using histone substrate after 30 mins by scintillation counting method in presence of [3H]acetyl-CoA
[5] = biological target: T1, Histone acetyltransferase p300; test: Inhibition of full length recombinant human FLAG-tagged p300 expressed in baculovirus expression system using histone substrate incubated for 10 mins by radiometric gel assay
[6] = biological target: T1, Histone acetyltransferase p300; test: Inhibition of full length recombinant human His6-tagged p300 expressed in baculovirus infected Sf21 cells using N-terminal H3 peptide substrate after 10 mins by radiometric filter binding assay in presence of [3H]acetyl-CoA
[7] = biological target: T2, Histone acetyltransferase KAT2B; test: Inhibition of recombinant human PCAF catalytic domain (492 to 658 residues) expressed in Escherichia coli using histone H3 (5 to 23 residues) as substrate at 800 uM after 1 hr by liquid scintillation counting method in presence of [3H]acetyl-CoA relative to control
Target sequence in this assay (Q92831 whole entry, looked up): as the sequence (Q92831 whole entry) above

[8] = biological target: Histone acetyltransferase KAT2A (Homo sapiens, UniProt Q92830); test: Inhibition of recombinant human GCN5 catalytic domain (497 to 663 residues) expressed in Escherichia coli using histone H3 (5 to 23 residues) as substrate at 800 uM after 1 hr by liquid scintillation counting method in presence of [3H]acetyl-CoA relative to control
Sequence of Histone acetyltransferase KAT2A (Q92830 2-837 limits assumed): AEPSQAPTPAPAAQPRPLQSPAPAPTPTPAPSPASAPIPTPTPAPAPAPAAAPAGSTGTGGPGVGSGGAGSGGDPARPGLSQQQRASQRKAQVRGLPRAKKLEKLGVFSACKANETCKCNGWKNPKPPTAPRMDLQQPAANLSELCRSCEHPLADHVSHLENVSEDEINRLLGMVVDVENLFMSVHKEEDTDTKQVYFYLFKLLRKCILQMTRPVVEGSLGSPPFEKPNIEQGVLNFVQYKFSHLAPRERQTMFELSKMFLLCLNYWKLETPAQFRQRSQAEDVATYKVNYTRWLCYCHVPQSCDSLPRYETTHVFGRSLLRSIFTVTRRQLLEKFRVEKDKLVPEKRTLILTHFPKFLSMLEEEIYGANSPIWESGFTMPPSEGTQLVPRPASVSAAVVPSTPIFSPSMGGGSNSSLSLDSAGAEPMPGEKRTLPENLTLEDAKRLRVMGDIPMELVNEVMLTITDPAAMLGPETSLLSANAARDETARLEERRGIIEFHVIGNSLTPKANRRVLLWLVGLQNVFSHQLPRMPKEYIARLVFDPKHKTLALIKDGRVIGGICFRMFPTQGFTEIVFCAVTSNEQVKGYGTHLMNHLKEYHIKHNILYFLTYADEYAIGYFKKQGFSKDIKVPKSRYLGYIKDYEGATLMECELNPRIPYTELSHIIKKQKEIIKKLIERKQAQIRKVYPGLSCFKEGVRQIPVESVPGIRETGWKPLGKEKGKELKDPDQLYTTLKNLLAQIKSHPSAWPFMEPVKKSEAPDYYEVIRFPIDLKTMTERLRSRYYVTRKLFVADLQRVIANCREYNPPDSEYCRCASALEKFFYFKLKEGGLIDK

[9] = biological target: T1, Histone acetyltransferase p300; test: Inhibition of recombinant GST-tagged p300 (unknown origin) using histone H4 peptide substrate assessed as reduction in NADH formation by spectrophotometric analysis
[10] = biological target: CREB-binding protein (Homo sapiens, UniProt Q92793); test: Inhibition of recombinant GST-tagged CBP (unknown origin) using histone H4 peptide substrate assessed as reduction in NADH formation by spectrophotometric analysis
[11] = biological target: T2, Histone acetyltransferase KAT2B; test: Inhibition of recombinant PCAF (unknown origin) using histone H4 peptide substrate assessed as reduction in NADH formation by spectrophotometric analysis
Target sequence in this assay (Q92831 whole entry): as the sequence (Q92831 whole entry) above

[12] = biological target: Histone acetyltransferase KAT5 (Homo sapiens, UniProt Q92993); test: Inhibition of recombinant TIP60 (unknown origin) using histone H4 peptide substrate assessed as reduction in NADH formation by spectrophotometric analysis
Sequence of Histone acetyltransferase KAT5 (Q92993 whole entry): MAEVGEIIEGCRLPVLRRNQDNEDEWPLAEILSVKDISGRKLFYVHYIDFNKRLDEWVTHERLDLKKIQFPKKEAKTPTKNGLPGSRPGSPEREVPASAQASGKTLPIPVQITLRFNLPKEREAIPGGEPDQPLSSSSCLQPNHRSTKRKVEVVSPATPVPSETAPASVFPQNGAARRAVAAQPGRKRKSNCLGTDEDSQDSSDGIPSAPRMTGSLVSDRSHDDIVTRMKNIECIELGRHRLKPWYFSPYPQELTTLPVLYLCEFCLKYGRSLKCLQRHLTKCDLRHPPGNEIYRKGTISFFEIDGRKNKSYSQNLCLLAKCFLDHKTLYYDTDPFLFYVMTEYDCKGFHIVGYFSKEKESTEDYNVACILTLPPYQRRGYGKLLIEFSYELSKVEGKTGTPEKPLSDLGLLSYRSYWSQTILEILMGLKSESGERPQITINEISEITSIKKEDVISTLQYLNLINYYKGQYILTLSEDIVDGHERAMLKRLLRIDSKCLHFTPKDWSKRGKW

[13] = test system: Saccharomyces cerevisiae; test: Inhibition of yeast YJW458 TAP-tagged SAS2 expressed in Escherichia coli BL21-CodonPlus(DE3)-RIL cells using histone H3 as substrate at 10 uM incubated for 2 to 4 mins by SDS-PAGE based autoradiography in presence of [14C]acetyl-CoA relative to control
[14] = test system: Saccharomyces cerevisiae; test: Inhibition of yeast RTT109 using histone H3 substrate at 10 uM incubated for 2 to 4 mins by SDS-PAGE based autoradiography in presence of [14C]acetyl-CoA relative to control
[15] = test system: Saccharomyces cerevisiae; test: Inhibition of yeast GCN5 using histone H3 substrate at 10 uM incubated for 2 to 4 mins by SDS-PAGE based autoradiography in presence of [14C]acetyl-CoA relative to control
[16] = biological target: T2, Histone acetyltransferase KAT2B; test: Inhibition of PCAF (unknown origin) using H4-15 peptide substrate at 10 uM incubated for 10 mins by radiometric filter binding assay in presence of [14C]acetyl-CoA relative to control
Target sequence in this assay (Q92831 whole entry, looked up): as the sequence (Q92831 whole entry) above

[17] = biological target: Histone acetyltransferase KAT6A (Homo sapiens) (UniProt Q92794); test: Inhibition of human MOZ using histone H3 substrate at 10 uM incubated for 2 to 4 mins by SDS-PAGE based autoradiography in presence of [14C]acetyl-CoA relative to control
[18] = biological target: T1, Histone acetyltransferase p300; test: Activation of full length recombinant human His6-tagged p300 expressed in baculovirus infected Sf21 cells using N-terminal H3 peptide substrate at 275 uM after 10 mins by radiometric filter binding assay in presence of [3H]acetyl-CoA relative to control

SMILES: COc1ccc(C(=O)C2=C3OC(C)(C)[C@@H](CC=C(C)C)C[C@@]34C[C@@H](/C=C\C(C)C)C(C)(C)[C@@](CC=C(C)C)(C2=O)C4=O)cc1O
IC50 [1]: 5 µM

SMILES: CC(=O)N[C@@H](CCCCNC(=O)CSCCNC(=O)CCNC(=O)[C@H](O)C(C)(C)COP(=O)(O)OP(=O)(O)OC[C@H]1O[C@@H](n2cnc3c(N)ncnc32)[C@H](O)[C@@H]1OP(=O)(O)O)C(N)=O
IC50 [2]: 200 µM
IC50 [3]: 0.05 µM
IC50 [4]: 0.0032 µM
IC50 [5]: 0.5 µM

SMILES: C=C(C)[C@@H](/C=C/C(C)C)C[C@@]12C[C@@H](/C=C\C(C)C)C(C)(C)[C@@](CC=C(C)C)(C(=O)C(C(=O)c3ccc(O)c(O)c3)=C1O)C2=O
IC50 [6]: 7 µM

SMILES: CC1CC/C(=N/Nc2nc(-c3ccc(Cl)cc3)cs2)C1 (stereo unspecified)
inhibition [7]: 40%
inhibition [8]: 40%

SMILES: O=C(O[C@@H]1Cc2c(O)cc(O)cc2O[C@@H]1c1cc(O)c(O)c(O)c1)c1cc(O)c(O)c(O)c1 [EPIGALOCATECHIN GALLATE]
IC50 [9]: 30 µM
IC50 [10]: 50 µM
IC50 [11]: 60 µM
IC50 [12]: 70 µM

SMILES: CNC(=O)[C@H](C)NC(=O)[C@H](CCCNC(=N)N)NC(=O)[C@@H](NC(=O)[C@H](CCCCN)NC(=O)[C@H](CCC(N)=O)NC(=O)[C@@H](NC(=O)[C@H](C)NC(=O)[C@H](CCCNC(=N)N)NC(=O)[C@H](CC(C)C)NC(=O)[C@H](CO)NC(=O)[C@@H](NC(=O)CNC(=O)CNC(=O)N[C@H](CCCCNC(=O)CSCCNC(=O)CCNC(=O)[C@@H](O)C(C)(C)COP(=O)(O)OP(=O)(O)OC[C@@H]1O[C@H](n2cnc3c(N)ncnc32)[C@@H](O)[C@H]1OP(=O)(O)O)C(=O)N[C@@H](C)C(=O)N1CCC[C@@H]1C(=O)N[C@H](CCCNC(=N)N)C(=O)N[C@H](CCCCN)C(=O)N[C@H](CCC(N)=O)C(=O)N[C@@H](CC(C)C)C(=O)O)[C@H](C)O)[C@H](C)O)[C@H](C)O
IC50 [2]: 0.3 µM
IC50 [5]: 200 µM

The next lines start with results.

inhibition [14]: < 10%
inhibition [15]: < 10%
inhibition [16]: < 10%
inhibition [17]: < 10%
SMILES: CC1=NN(c2ccc(C(=O)O)cc2)C(=O)/C1=C\c1ccc(-c2cc(C)c(C)cc2[N+](=O)[O-])o1
inhibition [13]: < 10%

IC50 [4]: 0.022 µM
SMILES: N=C(N)NCCC[C@@H]1NC(=O)/C(=C/c2ccc(O)c(OCC[C@H](NC(=O)C[C@](O)(CC(=O)O)C(=O)O)C(=O)O)c2)NC1=O

Emax [18]: 400%
SMILES: CCCCCCCCCCCCCCCc1cccc(OCC)c1C(=O)Nc1ccc(Cl)c(C(F)(F)F)c1
